From patent US5997843A, “Radiometal complexes that localise in hypoxic tissue” (priority 1993, dated 1999)
Entries after “also recorded” stand apart in the source; their conditions may differ. Like-named read-outs stand apart in the source and are kept apart here.

How the values were obtained:
[1] = system: isolated (Langendorff) rat hearts; assay: Isolated perfused heart (Langendorff), hypoxic vs oxic uptake/retention; details: for Hypoxic/Oxic Ratio (H/O): ^99m Tc complex (or ^123 I-IAZA), 20 min infusion, 15 min washout; for normalised hypoxic retention, times greater than ^3 H misonidazole: isolated buffer perfused rat heart model; for Normalised Hypoxic Retention: relative to ^3 H-misonidazole activity
Protocol: A 15-minute cold buffer washout period follows. y activity in the heart is monitored using a collimated NaI probe detector positioned over the heart.
Activity in hearts, relative to perfusate activity, is calculated for each nuclide and data evaluated for each compound for activity in hypoxic and oxic hearts (hypoxic:oxic ratio) and also relative to the 3 H-misonidazole activity (normalised retention) using Formula 1. [formula] Results

[2] = Biodistribution in rats; format: in vivo, male rats; details: i.v.
Protocol: Biodistribution in Rats--Methods
The quantitative biodistribution was studied in male rats at 2 minutes, 1 hour and 4 hours post-injection
Rats under light anaesthesia were injected intravenously with 0.1 ml of test agent. Three rats were sacrificed (anaesthesia followed by exsanguination) at 2, 60 and 240 minutes, post-injection. The percentage of the injected dose in the excreta and organs and tissues was determined by dissection and assay for radioactivity in an automatic gamma counter.

[3] = system: xanthine oxidase; assay: Xanthine oxidase (XOD) with hypoxanthine in PBS reduction test; format: biochemical; details: ^99m Tc complex, HPLC
Protocol: b) Xanthine Oxidase (XOD) with Hypoxanthine in Phosphate Buffered Saline (PBS)
Xanthine oxidase (16 mg) was weighed into a P6 vial. the vial was capped, oversealed and purged with nitrogen gas. Nitrogen purged phosphate buffered saline (1 ml) was added to the vial containing the xanthine oxidase.
Hypoxanthine (4.1 mg) was weighed into a P6 vial. The vial was capped, oversealed and purged with nitrogen gas. To the hypoxanthine was added (1 ml) of the xanthine oxidase in PBS.
1 ml of the ligand solution or 1 ml of the ^99m Tc-complex preparation was then added to the reducing mixture, shaken, and aliquots were taken at 20 minute time intervals.

[4] = rat, cited from earlier work
[5] = system: xanthine oxidase; details: ^99 Tc complex; cited from earlier work
[6] = 2 min post-injection, ^99m Tc complex
[7] = 240 min post-injection (third printed value)
[8] = second of two values, 60 or 240 min not assignable

With `CC(=NO)C(C)(C)NCCCCNC(C)(C)C(C)=NO` [Compound I, 4,9-diaza-3,3,10,10-tetramethyldodecan-2,11',-dione dioxime] the “hypoxia selectivity / hypoxic/oxic ratio / hypoxic retention (in words)” value [1] was “significantly greater than seen for other ^99m Tc test agents and ^123 I-IAZA; also recorded: greater than that for ^99m Tc-PnAO; also recorded: at least equivalent to ^123 I-IAZA; also recorded: significantly greater hypoxic cell selectivity than the corresponding nitroimidazole conjugate”, the “Hypoxic/Oxic Ratio (H/O)” value [1] was 54 and the “normalised hypoxic retention, times greater than ^3 H misonidazole” value [1] was “at least 2 times”. The “Normalised Hypoxic Retention” value [1] was 2.2, the Bladder/Urine ([2]; 2 min post-injection) was 0.6 percent injected dose and the Blood ([2]; 2 min post-injection) was 9.7 percent injected dose. The Gut ([2]; 2 min post-injection) was 11.2 percent injected dose, the Kidney ([2]; 2 min post-injection) was 7.5 percent injected dose and the Liver ([2]; 2 min post-injection) was 10.6 percent injected dose. It also gave a Muscle [2, 6] of 35.2 percent injected dose, a Gut ([2]; 60 min post-injection) of 22.3 percent injected dose and a Muscle ([2]; 60 min post-injection) of 12.5 percent injected dose. The Muscle [2, 7] was 3.5 percent injected dose, the Gut ([2]; 240 min post-injection) was 24.4 percent injected dose and the Blood [2, 8] was 2.4 percent injected dose. For the same compound, the Kidney [2, 8] was 5.6 percent injected dose, the Liver [2, 8] was 9.1 percent injected dose and the “Xanthine oxidase reduction test result” value [3] was “positive”. For the same compound, the brain uptake ([4]; 30 sec pi, ^99m Tc complex) was 0.12 % injected dose.

In the case of `CC(=NO)C(C)(C)NCCCCNC(C)(C)C(Cn1ccnc1[N+](=O)[O-])=NO` [Compound II], the “hypoxia selectivity / hypoxic/oxic ratio / hypoxic retention (in words)” value [1] is reported as “significantly greater than seen for other ^99m Tc test agents and ^123 I-IAZA; also recorded: greater than that for ^99m Tc-PnAO; also recorded: at least equivalent to ^123 I-IAZA”, the “Hypoxic/Oxic Ratio (H/O)” value [1] is reported as 28 and the “normalised hypoxic retention, times greater than ^3 H misonidazole” value [1] is reported as “at least 2 times”. The “Normalised Hypoxic Retention” value [1] was 5.1, the Bladder/Urine ([2]; 2 min post-injection) was 1.0 percent injected dose and the Blood ([2]; 2 min post-injection) was 8.4 percent injected dose. It also gave a Gut ([2]; 2 min post-injection) of 13.4 percent injected dose, a Kidney ([2]; 2 min post-injection) of 13.1 percent injected dose and a Liver ([2]; 2 min post-injection) of 15.5 percent injected dose. It also gave a Muscle [2, 6] of 26.1 percent injected dose, a Gut ([2]; 60 min post-injection) of 40.0 percent injected dose and a Muscle ([2]; 60 min post-injection) of 6.6 percent injected dose. For the same compound, the Muscle [2, 7] was 3.1 percent injected dose, the Gut ([2]; 240 min post-injection) was 49.9 percent injected dose and the Blood [2, 8] was 1.3 percent injected dose. For the same compound, the Kidney [2, 8] was 1.4 percent injected dose, the Liver [2, 8] was 11.4 percent injected dose and the “Xanthine oxidase reduction test result” value [3] was “positive”.

For `CC(=NO)C(C)(C)NCCCCCNC(C)(C)C(Cn1ccnc1[N+](=O)[O-])=NO` [Compound IV, 3,3,11,11-tetramethyl-1-(2-nitro-1H-imidazo-1-yl)-4,10-diazatridecan-2,12-dione dioxime], the “hypoxia selectivity / hypoxic/oxic ratio / hypoxic retention (in words)” value [1] was “very little hypoxia selectivity”, the “Hypoxic/Oxic Ratio (H/O)” value [1] was 2.4 and the “Normalised Hypoxic Retention” value [1] was 0.49. The Bladder/Urine ([2]; 2 min post-injection) was 0.4 percent injected dose, the Blood ([2]; 2 min post-injection) was 10.6 percent injected dose and the Gut ([2]; 2 min post-injection) was 13.7 percent injected dose. It also gave a Kidney ([2]; 2 min post-injection) of 12.1 percent injected dose, a Liver ([2]; 2 min post-injection) of 15.6 percent injected dose and a Muscle [2, 6] of 24.3 percent injected dose. It also gave a Gut ([2]; 60 min post-injection) of 50.9 percent injected dose, a Muscle ([2]; 60 min post-injection) of 8.2 percent injected dose and a Muscle [2, 7] of 2.0 percent injected dose. It also gave a Gut ([2]; 240 min post-injection) of 60.0 percent injected dose, a Blood [2, 8] of 1.0 percent injected dose and a Kidney [2, 8] of 2.7 percent injected dose. For the same compound, the Liver [2, 8] was 2.5 percent injected dose and the “Xanthine oxidase reduction test result” value [3] was “positive”.

For `CC(=NO)C(C)(C)NCCCNC(C)(C)C(Cn1ccnc1[N+](=O)[O-])=NO` [Compound V, 3,3,9,9-Tetramethyl-1-(2-nitro-1H-imidazo-1-yl)-4,8-diazaundecane-2,10-dione dioxime, reference compound], the “Hypoxic/Oxic Ratio (H/O)” value [1] was 10, the “Normalised Hypoxic Retention” value [1] was 8.4 and the Bladder/Urine ([2]; 2 min post-injection) was 0.3 percent injected dose. For the same compound, the Blood ([2]; 2 min post-injection) was 7.2 percent injected dose, the Gut ([2]; 2 min post-injection) was 11.1 percent injected dose and the Kidney ([2]; 2 min post-injection) was 4.1 percent injected dose. The Liver ([2]; 2 min post-injection) was 25.1 percent injected dose, the Muscle [2, 6] was 29.6 percent injected dose and the Gut ([2]; 60 min post-injection) was 45.9 percent injected dose. The Muscle ([2]; 60 min post-injection) was 4.2 percent injected dose, the Muscle [2, 7] was 2.4 percent injected dose and the Gut ([2]; 240 min post-injection) was 59.3 percent injected dose. The Blood [2, 8] was 4.2 percent injected dose, the Kidney [2, 8] was 3.2 percent injected dose and the Liver [2, 8] was 21.5 percent injected dose. The “Xanthine oxidase reduction test result” value [3] was “positive”.

In the case of `CC(=NO)C(C)(C)NCCCNC(C)(C)C(C)=NO` [Compound X, reference compound], the “Hypoxic/Oxic Ratio (H/O)” value [1] is reported as 5.1, the “Normalised Hypoxic Retention” value [1] is reported as 0.50 and the Bladder/Urine ([2]; 2 min post-injection) is reported as 0.1 percent injected dose. It also gave a Blood ([2]; 2 min post-injection) of 5.0 percent injected dose, a Gut ([2]; 2 min post-injection) of 11.7 percent injected dose and a Kidney ([2]; 2 min post-injection) of 1.8 percent injected dose. The Liver ([2]; 2 min post-injection) was 27.9 percent injected dose, the Muscle [2, 6] was 34.9 percent injected dose and the Gut ([2]; 60 min post-injection) was 51.5 percent injected dose. The Muscle ([2]; 60 min post-injection) was 7.9 percent injected dose, the Muscle [2, 7] was 2.6 percent injected dose and the Gut ([2]; 240 min post-injection) was 53.4 percent injected dose. For the same compound, the Blood [2, 8] was 6.8 percent injected dose, the Kidney [2, 8] was 2.1 percent injected dose and the Liver [2, 8] was 13.1 percent injected dose. The “Xanthine oxidase reduction test result” value [3] was “positive”, the “Xanthine oxidase reduction test result” value ([3]; listed as PnAO) was “reduced by xanthine oxidase” and the “reduction by xanthine oxidase” value [5] was “not reduced”. For the same compound, the brain uptake ([4]; in vivo, 0.5 min) was 1.3 % injected dose.

In the case of `COCC(=NO)C(C)(COC)NCCCCNC(C)(COC)C(COC)=NO` (centres unmarked) [Compound XV, 3,10-Bis(methoxymethyl)-4,9-diaza-1,12-dimethoxy-3,10-dimethyldodecan-2,11-dione dioxime], the “Hypoxic/Oxic Ratio (H/O)” value [1] is reported as 1.2, the “Normalised Hypoxic Retention” value [1] is reported as 1.4 and the Bladder/Urine ([2]; 2 min post-injection) is reported as 1.2 percent injected dose. The Blood ([2]; 2 min post-injection) was 12.8 percent injected dose, the Gut ([2]; 2 min post-injection) was 9.5 percent injected dose and the Kidney ([2]; 2 min post-injection) was 14.2 percent injected dose. For the same compound, the Liver ([2]; 2 min post-injection) was 10.2 percent injected dose, the Muscle [2, 6] was 27.4 percent injected dose and the Gut ([2]; 60 min post-injection) was 21.3 percent injected dose. The Muscle ([2]; 60 min post-injection) was 5.7 percent injected dose, the Muscle [2, 7] was 1.9 percent injected dose and the Gut ([2]; 240 min post-injection) was 32.1 percent injected dose. The Blood [2, 8] was 1.7 percent injected dose, the Kidney [2, 8] was 6.2 percent injected dose and the Liver [2, 8] was 6.3 percent injected dose.

For `COC(=O)C(CCCNC(C)(C)C(C)=NO)NC(C)(C)C(C)=NO` (centres unmarked) [Compound XVI, 4,9-diaza-3,3,10,10-tetramethyldodecan-2,11-dione dioxime-8-carboxylic acid methyl ester], the “Hypoxic/Oxic Ratio (H/O)” value [1] was 4.0, the “Normalised Hypoxic Retention” value [1] was 0.22 and the Bladder/Urine ([2]; 2 min post-injection) was 0.3 percent injected dose. It also gave a Blood ([2]; 2 min post-injection) of 17.8 percent injected dose, a Gut ([2]; 2 min post-injection) of 6.3 percent injected dose and a Kidney ([2]; 2 min post-injection) of 13.8 percent injected dose. The Liver ([2]; 2 min post-injection) was 4.4 percent injected dose, the Muscle [2, 6] was 24.4 percent injected dose and the Gut ([2]; 60 min post-injection) was 6.5 percent injected dose. The Muscle ([2]; 60 min post-injection) was 3.7 percent injected dose, the Muscle [2, 7] was 2.3 percent injected dose and the Gut ([2]; 240 min post-injection) was 12.4 percent injected dose. For the same compound, the Blood [2, 8] was 3.1 percent injected dose, the Kidney [2, 8] was 7.6 percent injected dose and the Liver [2, 8] was 2.5 percent injected dose.
